The structures appear in SMILES notation.

The assay deals with native tau aggregates. The experiment in a line: TAU radioligand in vitro displacement assay ([3H]T808 autoradiography on human AD brain sections). The assay is classed as binding. To be noted: radioligand [3H]T808 10 nM, 50 mM Tris pH 7.4, room temperature, 30 min; for % displacement of [3H]T808 (10 nM) at 10 nM: compound 10 nM. The method, then: TAU Radioligand-In-Vitro Displacement Assay
This in vitro binding assay assesses the affinity of compounds for native tau aggregates. The compounds are co-incubated with the well-established tau specific radioligand [^3H]T808 and the compound's displacement potency of [^3H]T808 binding is determined by in vitro autoradiography using human Alzheimer's disease (AD) brain sections (FIG. 1).
AD human brains are purchased from Banner Sun Health Research Institute (Sun City, Ariz., USA). Pathological diagnosis of AD is made according to standard NIA-Reagan Institute criteria based on neuropathological data. The radioligand [^3H]T808 was synthesized in-house ([^3H]-2-[4-(2-Fluoro-ethyl)-piperidin-1-yl]-benzo[4,5]imidazo[1,2-a]pyrimidine, radiochemical purity 99.0%). As a reference cold T808 is used (2-[4-(2-Fluoro-ethyl)-piperidin-1-yl]-benzo[4,5]imidazo[1,2-a]pyrimidine). For the autoradiography FujiFilm Imaging Plates (BAS-IP TR 2025) are exposed to the sections and read with a FujiFilm IP reader (BAS-5000).
Ten μm thick human AD brain sections are generated with a cryostat (Leica CM3050) at −17° C. chamber temperature and −15° C. object temperature. Sections are transferred to Histobond+microscope slides (Marienfeld Laboratory Glasware). After drying for 3 hours at room temperature the sections are stored at −20° C. The sections are incubated with the radioligand (10 nM) and the respective cold compound (at various concentrations) in 50 mM Tris buffer, pH 7.4 at room temperature for 30 min. After washing 3×10 min at 4° C. in 50 mM Tris buffer, pH 7.4 and 3 quick dips in H2O dist. at 4° C. the sections are dried at 4° C. for 3 h. The sections are placed in a FujiFilm Cassette (BAS 2025), exposed with an Imaging Plate for five days and afterwards scanned with a resolution of […].
The signal intensity (Dens—PSL/mm2) in the region of interest (ROI) of the autoradiogram is quantified with the software MCID analysis (version 7.0, Imaging Research Inc.). The specific binding (SB) of [^3H]T808 binding in absence or in presence of a compound is calculated by subtracting the non-specific binding signal in the white matter, thus yielding SB[3H]T808 only and SBcompund. The % displacement by the various compounds is calculated as following: % displacement=100−(SBcompund/SB[3H]T808 only)*100.
In each experiment cold T808 is used as a positive internal control. Co-incubation of equimolar amounts of hot and cold T808 is expected to reduce specific binding by approximately 50%.
Background: Loss of bound radioactivity is the signal in a displacement assay; it reports binding, not function.

On to `COc1ccc(-c2cn3ccc(N4CC[C@@H](F)C4)nc3n2)cc1` [Example 33, 7-[(3R)-3-Fluoropyrrolidin-1-yl]-2-(4-methoxyphenyl)imidazo[1,2-a]pyrimidine], for which the “% displacement of [3H]T808 (10 nM) at 10 nM” value (shortened to “% displacement … at 10 nM”) turned out to be 25%. The same measure, in the same setting: to `COc1ccc(-c2cn3ccc(N4CC[C@H](F)C4)nc3n2)cc1` [Example 34, 7-[(3 S)-3-Fluoropyrrolidin-1-yl]-2-(4-methoxyphenyl)imidazo[1,2-a]pyrimidine] belongs 15%; to `COc1cccc(-c2cn3ccc(N(C)C)nc3n2)c1` [Example 35, 2-(3-Methoxyphenyl)-N,N-dimethylimidazo[1,2-a]pyrimidin-7-amine], 34%.

For `COc1ccc(-c2cn3ccc(N(C)C)nc3n2)cc1` [Example 36, 2-(4-Methoxyphenyl)-N,N-dimethylimidazo[1,2-a]pyrimidin-7-amine], the “% displacement … at 10 nM” value is 47%. On the same count and under the same terms, to `CN(C)c1ccn2cc(-c3ccc4c(c3)OCO4)nc2n1` [Example 37, 2-(1,3-Benzodioxol-5-yl)-N,N-dimethylimidazo[1,2-a]pyrimidin-7-amine] belongs 46%. As for `CN(C)c1ccn2cc(-c3ccc4c(c3)OCCO4)nc2n1` [Example 38, 2-(2,3-Dihydro-1,4-benzodioxin-6-yl)-N,N-dimethylimidazo[1,2-a]pyrimidin-7-amine], the “% displacement … at 10 nM” value is on record as 37%. In the case of `Cc1ccc(-c2cn3ccc(N(C)C)nc3n2)cc1` [Example 39, N,N-Dimethyl-2-(4-methylphenyl)imidazo[1,2-a]pyrimidin-7-amine], the “% displacement … at 10 nM” value amounted to 49%.

For the compound `Cc1cccc(-c2cn3ccc(N(C)C)nc3n2)c1` [Example 40, N,N-Dimethyl-2-(3-methylphenyl)imidazo[1,2-a]pyrimidin-7-amine], the “% displacement … at 10 nM” value was 51%. As to `COc1cccc(-c2cn3ccc(N4CCOCC4)nc3n2)c1` [Example 41, 4-[2-(3-Methoxyphenyl)imidazo[1,2-a]pyrimidin-7-yl]morpholine], the “% displacement … at 10 nM” value turned out to be 16%. Consider `Cc1ccc(-c2cn3ccc(N4CCOCC4)nc3n2)cc1` [Example 42, 4-[2-(4-Methylphenyl)imidazo[1,2-a]pyrimidin-7-yl]morpholine], for which the “% displacement … at 10 nM” value is 8%. With `COc1ccc(-c2cn3ccc(N4CCCC4)nc3n2)cc1` [Example 43, 2-(4-Methoxyphenyl)-7-pyrrolidin-1-ylimidazo[1,2-a]pyrimidine], the “% displacement … at 10 nM” value turned out to be 29%.

In the case of `Cc1ccc(-c2cn3ccc(N4CCCC4)nc3n2)cc1` [Example 44, 2-(4-Methylphenyl)-7-pyrrolidin-1-ylimidazo[1,2-a]pyrimidine], the “% displacement … at 10 nM” value is recorded as 28%. Turning to `CN(C)c1ccn2cc(-c3ccc(N4CCOCC4)cc3)nc2n1` [Example 45, N,N-Dimethyl-2-(4-morpholin-4-ylphenyl)imidazo[1,2-a]pyrimidin-7-amine], the “% displacement … at 10 nM” value stood at 29%.

As to `CN(C)c1ccc(-c2cn3ccc(N(C)C)nc3n2)cc1` [Example 46, 2-[4-(Dimethylamino)phenyl]-N,N-dimethylimidazo[1,2-a]pyrimidin-7-amine], the “% displacement … at 10 nM” value is listed as 43%. On to `COc1cccc(-c2cn3ccc(N4CCCC4)nc3n2)c1` [Example 47, 2-(3-Methoxyphenyl)-7-pyrrolidin-1-ylimidazo[1,2-a]pyrimidine], for which the “% displacement … at 10 nM” value was determined as 20%. `Cc1cccc(-c2cn3ccc(N4CCCC4)nc3n2)c1` [Example 48, 2-(3-Methylphenyl)-7-pyrrolidin-1-ylimidazo[1,2-a]pyrimidine]: the “% displacement … at 10 nM” value is given as 23%. For the compound `COc1ccc(-c2cn3ccc(N4CCCCC4)nc3n2)cc1` [Example 49, 2-(4-Methoxyphenyl)-7-piperidin-1-ylimidazo[1,2-a]pyrimidine], the “% displacement … at 10 nM” value came out at 17%. Still for that read-out and setting: to `COc1cccc(-c2cn3ccc(N4CCCCC4)nc3n2)c1` [Example 50, 2-(3-Methoxyphenyl)-7-piperidin-1-ylimidazo[1,2-a]pyrimidine] belongs 14%.

As for `Cc1ccc(-c2cn3ccc(N4CCCCC4)nc3n2)cc1` [Example 51, 2-(4-Methylphenyl)-7-piperidin-1-ylimidazo[1,2-a]pyrimidine], the “% displacement … at 10 nM” value is 8%. In the case of `Cc1cccc(-c2cn3ccc(N4CCCCC4)nc3n2)c1` [Example 52, 2-(3-Methylphenyl)-7-piperidin-1-ylimidazo[1,2-a]pyrimidine], the “% displacement … at 10 nM” value is listed as 14%. For `COc1ccc(-c2cn3ccc(N4CCCCC4)nc3n2)cc1OC` [Example 53, 2-(3,4-Dimethoxyphenyl)-7-piperidin-1-ylimidazo[1,2-a]pyrimidine], the “% displacement … at 10 nM” value is given as 6%. Turning to `FCCC1CCN(c2ccn3cc(-c4ccccc4)nc3n2)CC1` [Example 54, 7-[4-(2-Fluoroethyl)piperidin-1-yl]-2-phenylimidazo[1,2-a]pyrimidine], the “% displacement … at 10 nM” value is recorded as 14%. Still for that read-out and setting: to `COc1cccc(-c2cn3ccc(N4CCC(CCF)CC4)nc3n2)c1` [Example 55, 7-[4-(2-Fluoroethyl)piperidin-1-yl]-2-(3-methoxyphenyl)imidazo[1,2-a]pyrimidine] belongs 10%; to `COc1ccc(-c2cn3ccc(N4CCC(CCF)CC4)nc3n2)cc1` [Example 56, 7-[4-(2-Fluoroethyl)piperidin-1-yl]-2-(4-methoxyphenyl)imidazo[1,2-a]pyrimidine], 9%. With `FCCC1CCN(c2ccn3cc(-c4ccc5c(c4)OCO5)nc3n2)CC1` [Example 57, 2-(1,3-Benzodioxol-5-yl)-7-[4-(2-fluoroethyl)piperidin-1-yl]imidazo[1,2-a]pyrimidine], the “% displacement … at 10 nM” value was determined as 9%. Regarding `FCCC1CCN(c2ccn3cc(-c4ccc5c(c4)OCCO5)nc3n2)CC1` [Example 58, 2-(2,3-Dihydro-1,4-benzodioxin-6-yl)-7-[4-(2-fluoroethyl)piperidin-1-yl]imidazo[1,2-a]pyrimidine], the “% displacement … at 10 nM” value amounted to 18%. Still for that read-out and setting: as for `Cc1cccc(-c2cn3ccc(N4CCC(CCF)CC4)nc3n2)c1` [Example 59, 7-[4-(2-Fluoroethyl)piperidin-1-yl]-2-(3-methylphenyl)imidazo[1,2-a]pyrimidine], the figure is 10%; as for `Cc1ccc(-c2cn3ccc(N4CCC(CCF)CC4)nc3n2)cc1` [Example 60, 7-[4-(2-Fluoroethyl)piperidin-1-yl]-2-(4-methylphenyl)imidazo[1,2-a]pyrimidine], 15%; as for `FCCC1CCN(c2ccn3cc(-c4ccc(N5CCOCC5)cc4)nc3n2)CC1` [Example 61, 4-[4-[7-[4-(2-Fluoroethyl)piperidin-1-yl]imidazo[1,2-a]pyrimidin-2-yl]phenyl]morpholine], 10%. In the case of `CNc1ccn2cc(-c3cccc(C)c3)nc2n1` [Example 62, N-Methyl-2-(3-methylphenyl)imidazo[1,2-a]pyrimidin-7-amine], the “% displacement … at 10 nM” value is 48%. Turning to `FC1CCN(c2ccn3cc(-c4ccsc4)nc3n2)CC1` [Example 63, 7-(4-Fluoropiperidin-1-yl)-2-thiophen-3-ylimidazo[1,2-a]pyrimidine], under “compound 1 uM”, the “% displacement of [3H]T808 (10 nM) at 1 uM” value is 70%. With `COc1ccc(-c2cn3ccc(N(C)CCOCCF)nc3n2)cc1` [Example 64, N-[2-(2-Fluoroethoxy)ethyl]-2-(4-methoxyphenyl)-N-methylimidazo[1,2-a]pyrimidin-7-amine], the “% displacement … at 10 nM” value came out at 15%. As to `COc1ccc(-c2cn3ccc(N4CC5(CCC5)C4)nc3n2)cc1` [Example 65, 7-(2-Azaspiro[3.3]heptan-2-yl)-2-(4-methoxyphenyl)imidazo[1,2-a]pyrimidine], the “% displacement … at 10 nM” value is given as 11%.

Take `CCN(C)c1ccn2cc(-c3ccc(OC)cc3)nc2n1` [Example 66, N-Ethyl-2-(4-methoxyphenyl)-N-methylimidazo[1,2-a]pyrimidin-7-amine]: the “% displacement … at 10 nM” value is 34%. For the compound `CCN(CC)c1ccn2cc(-c3ccc(OC)cc3)nc2n1` [Example 67, N,N-Diethyl-2-(4-methoxyphenyl)imidazo[1,2-a]pyrimidin-7-amine], the “% displacement … at 10 nM” value worked out at 19%.

The values are drawn from patent US9801961B2, “2-phenylimidazo[1,2-a]pyrimidines as imaging agents” (Hoffmann-La Roche Inc., priority 2013, dated 2017).
